Broadly, the melting point is the temperature, or range, at which the solid turns liquid. By IC50 is commonly meant the concentration needed to halve the response being measured.

One series concerns the target AChE (Homo sapiens, UniProt P22303). The series is described as follows: biochemical. As to conditions: for IC50: modified Ellman, read-out: AChE inhibitory activity IC50. The method, then:
(§1) The effects of twenty synthetic compounds were evaluated for AChE and BuChE inhibition using the modified method of Ellman et al.[33] […] AChE and BuChE are found in the brains of mammals. Genetically, structurally, and kinetically, the two kinds vary. In the human brain, BuChE is found in glial cells and neurons as well as in plaques and tangles in AD patients. […] BuChE may replace AChE by hydrolysing brain acetylcholine in some conditions, such as in mice nullizygote for AChE or in AD patients in advanced stages of the disease[34]^,[35].
(In general: Ellman's reagent forms a yellow product with free thiols.)

For a further series, the target named is T1, Aβ1–42 (Homo sapiens, UniProt P05067).
T1 construct: purchased BioVision K570-100
T1 sequence (P05067 672-713 limits assumed): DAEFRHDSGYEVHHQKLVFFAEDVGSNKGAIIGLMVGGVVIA
The series is described as follows: Inhibition of Aβ1-42 self-induced aggregation (BioVision ligand screening kit). It counts as biochemical. As to conditions: µM. The source says:
Screening Aβ42 ligands that could prevent aggregation is critical for developing potential therapeutic treatments. In BioVision’s Beta-Amyloid 1–42 (Aβ42) Ligand Screening kit, a dye binds to the beta-sheets of an aggregated amyloid peptide resulting in an intense fluorescent product at wave length 450 nm using a BIOLINE ELISA reader. In the presence of an Aβ42 ligand, this reaction is impeded/abolished resulting in a decrease or total loss of fluorescence. This assay is useful in screening Aβ42 ligands for developing potential therapeutic agents against AD[42]. The assessment was performed according to BioVision’s Beta-Amyloid 1–42 (Aβ42) Ligand Screening Kit Catalog No. K570-100.

The target in another series is BuChE (Homo sapiens, UniProt P06276). Description: biochemical. As to conditions: modified Ellman; read-out: BuChE inhibitory activity IC50. How it is done: as §1
Chain of BuChE (P06276 29-602): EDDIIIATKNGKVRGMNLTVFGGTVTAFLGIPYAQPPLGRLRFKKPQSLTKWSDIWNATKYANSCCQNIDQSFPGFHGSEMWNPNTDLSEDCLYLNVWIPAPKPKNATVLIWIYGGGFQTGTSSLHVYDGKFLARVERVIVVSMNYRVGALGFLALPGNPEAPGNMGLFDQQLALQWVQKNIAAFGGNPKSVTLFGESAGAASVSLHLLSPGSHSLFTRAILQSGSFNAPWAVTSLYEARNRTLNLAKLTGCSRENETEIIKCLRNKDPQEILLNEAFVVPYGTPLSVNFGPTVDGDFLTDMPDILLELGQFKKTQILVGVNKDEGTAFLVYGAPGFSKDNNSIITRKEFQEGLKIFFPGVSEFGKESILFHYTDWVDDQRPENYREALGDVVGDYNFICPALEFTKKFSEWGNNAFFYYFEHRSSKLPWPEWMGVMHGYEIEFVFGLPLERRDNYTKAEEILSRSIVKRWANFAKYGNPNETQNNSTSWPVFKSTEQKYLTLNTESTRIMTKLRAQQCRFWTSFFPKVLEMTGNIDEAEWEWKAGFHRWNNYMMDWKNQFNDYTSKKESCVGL

Values joined by “and” are separate entries in the source; they are usually repeats but may differ in a detail not shown here. Identical values can stand only once.

Chain of AChE (P22303 32-614): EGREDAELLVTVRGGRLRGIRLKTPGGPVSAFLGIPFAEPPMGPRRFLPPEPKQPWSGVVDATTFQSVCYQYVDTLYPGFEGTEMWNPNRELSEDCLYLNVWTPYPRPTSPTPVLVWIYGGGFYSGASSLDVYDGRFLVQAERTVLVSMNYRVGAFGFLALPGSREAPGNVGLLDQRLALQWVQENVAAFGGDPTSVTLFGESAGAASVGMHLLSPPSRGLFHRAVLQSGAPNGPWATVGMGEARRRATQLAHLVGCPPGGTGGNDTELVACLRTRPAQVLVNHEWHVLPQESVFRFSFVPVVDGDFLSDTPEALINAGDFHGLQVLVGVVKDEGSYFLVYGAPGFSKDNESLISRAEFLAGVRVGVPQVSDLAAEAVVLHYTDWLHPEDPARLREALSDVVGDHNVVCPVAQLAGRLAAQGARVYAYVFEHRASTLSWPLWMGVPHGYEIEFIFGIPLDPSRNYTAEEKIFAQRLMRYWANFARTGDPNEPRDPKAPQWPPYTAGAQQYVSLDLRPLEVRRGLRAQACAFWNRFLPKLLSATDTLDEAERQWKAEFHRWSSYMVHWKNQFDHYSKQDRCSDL

`CS(=O)(=O)n1cc(/C=C(/C(=O)O)c2ccccc2)c2ccccc21` came in with a melting point of 181 to 183 °C. The same measure, in the same setting: with `COc1cc(CC(=O)Nc2ccc(C(=O)/C=C/c3cn(S(C)(=O)=O)c4ccccc34)cc2)cc(OC)c1OC` the figure was 176 to 178 °C. As for `CS(=O)(=O)n1cc(/C=N/NC(=O)c2ccccc2)c2ccccc21`, the melting point was 114 to 116 °C.

The compound `COc1cc(-c2c(C#N)c(N)n(/N=C/c3cn(S(C)(=O)=O)c4ccccc34)c(=O)c2C#N)cc(OC)c1OC` registered a melting point of 210 to 212 °C. Consider `CS(=O)(=O)n1cc(/C=C(/C(=O)O)c2ccc(Cl)cc2)c2ccccc21` [Compound 3b, (E)-2–(4-Chlorophenyl)-3-[1-(methylsulfonyl)-1H-indol-3-yl]acrylic acid], for which the “AChE inhibition in words, compared to reference drugs (tacrine and donepezil)” value on AChE is “less activity”. With `COc1cc(/C(=C\c2cn(S(C)(=O)=O)c3ccccc23)C(=O)O)cc(OC)c1OC` [Compound 3c, (E)-3-[1-(Methylsulfonyl)-1H-indol-3-yl]-2–(3,4,5-trimethoxyphenyl)acrylic acid], the IC50 on Aβ1–42 came to 6.91 µM; at AChE, 0.0411 µM; at BuChE it was 0.117 µM. With `CS(=O)(=O)n1cc(/C=C(\C(=O)N2CCCCC2)c2ccc(Cl)cc2)c2ccccc21` [Compound 4a, (E)-2–(4-Chlorophenyl)-3-[1-(methylsulfonyl)-1H-indol-3-yl]-1-(pipridin-1-yl)prop-2-en-1-one], the IC50 against Aβ1–42 is 22.4 µM; on AChE, 0.132 to 0.164 µM; on BuChE, 0.0417 to 0.0741 µM and 0.0369 to 0.0804 µM.

For `CS(=O)(=O)n1cc(/C=C(/C(=O)Nc2cccnc2)c2ccc(Cl)cc2)c2ccccc21` [Compound 4b, (E)-2–(4-Chlorophenyl)-3-[1-(methylsulfonyl)-1H-indol-3-yl]-N-(pyridin-3-yl)acrylamide], the IC50 is 13.8 µM against Aβ1–42; 0.132 to 0.164 µM at AChE; 0.0417 to 0.0741 µM and 0.0369 to 0.0804 µM on BuChE. `CS(=O)(=O)n1cc(/C=C(\C(=O)N2CCN(c3ncccn3)CC2)c2ccc(Cl)cc2)c2ccccc21` [Compound 4c, (E)-2–(4-Chlorophenyl)-3-[1-(methylsulfonyl)-1H-indol-3-yl]-1-[4-(pyrimidin-2-yl)piprazin-1-yl]prop-2-en-1-one]: at AChE, the “AChE inhibition in words, compared to reference drugs (tacrine and donepezil)” value is recorded as “less activity”. In the case of `CS(=O)(=O)n1cc(C=C(C(=O)N2CCC(Cc3ccccc3)CC2)c2ccc(Cl)cc2)c2ccccc21` [Compound 4d, (E)-1–(4-Benzylpipridin-1-yl)-2–(4-chlorophenyl)-3-[1-(methylsulfonyl)-1H-indol-3-yl]prop-2-en-1-one], the IC50 against Aβ1–42 was 8.76 µM; at AChE, 0.132 to 0.164 µM; at BuChE, 0.0417 to 0.0741 µM and 0.0369 to 0.0804 µM.

As for `CS(=O)(=O)n1cc(/C=C/C(=O)c2ccc(NC(=O)Cc3ccccc3)cc2)c2ccccc21` [Compound 5a, (E)-N-{4-[3–(1-(methylsulfonyl)-1H-indol-3-yl)acryloyl]phenyl}-2-phenylacetamide], the “AChE inhibition in words, compared to reference drugs (tacrine and donepezil)” value at AChE was “less activity”. The same measure, in the same setting: the value for `CS(=O)(=O)n1cc(/C=C/C(=O)c2cccc(NC(=O)CN3CCC(Cc4ccccc4)CC3)c2)c2ccccc21` [Compound 6a, (E)-2–(4-Benzylpiperidin-1-yl)-N-{3-[3–(1-(methylsulfonyl)-1H-indol-3-yl)acryloyl]phenyl}acetamide] was “less activity”.

`CS(=O)(=O)n1cc(/C=N/NC(=O)Cc2ccccc2)c2ccccc21` [Compound 7b, (E)-N'-{[1-(Methylsulfonyl)-1H-indol-3-yl]methylene}-2-phenylacetohydrazide]: at AChE, the “AChE inhibition in words, compared to reference drugs (tacrine and donepezil)” value is given as “less activity”. Consider `CS(=O)(=O)n1cc(/C=N/NC(=O)Cc2ccc(Cl)cc2)c2ccccc21` [Compound 7c, (E)-2–(4-Chlorophenyl)-N'-{[1-(methylsulfonyl)-1H-indol-3-yl]methylene}acetohydrazide], for which the IC50 against Aβ1–42 amounted to 14.9 µM; on AChE it was 0.0891 µM; at BuChE, 0.076 µM.

Turning to `COc1ccc(-c2c(C#N)c(N)n(/N=C/c3cn(S(C)(=O)=O)c4ccccc34)c(=O)c2C#N)cc1` [Compound 9a, (E)-6-Amino-4-(4-methoxyphenyl)-1-{[(1-(methylsulfonyl)-1H-indol-3-yl)methylene]amino}-2-oxo-1,2-dihydropyridine-3,5-dicarbonitrile], at AChE, the “AChE inhibition in words, compared to reference drugs (tacrine and donepezil)” value is on record as “less activity”.

`COc1ccc(-c2c(C#N)c(N)n(/N=C/c3cn(S(C)(=O)=O)c4ccccc34)c(=O)c2C#N)cc1OC` [Compound 9b, (E)-6-Amino-4–(3,4-dimethoxyphenyl)-1-{[(1-(methylsulfonyl)-1H-indol-3-yl)methylene]amino}-2-oxo-1,2-dihydropyridine-3,5-dicarbonitrile]: the “AChE inhibition in words, compared to reference drugs (tacrine and donepezil)” value on AChE is reported as “less activity”. Same read-out and setting: with `CCn1c(N)c(C(=O)N/N=C/c2cn(S(C)(=O)=O)c3ccccc23)sc1=S` [Compound 10a, (E)-4-Amino-3-ethyl-N'-{[1-(methylsulfonyl)-1H-indol-3-yl]methylene}-2-thioxo-2,3-dihydrothiazole-5-carbohydrazide] the entry was “less activity”. Turning to `CS(=O)(=O)n1cc(/C=N/NC(=O)c2sc(=S)n(-c3ccccc3)c2N)c2ccccc21` [Compound 10b, (E)-4-Amino-N'-{[1-(methylsulfonyl)-1H-indol-3-yl]methylene}-3-phenyl-2-thioxo-2,3-dihydrothiazole-5-carbohydrazide], the half-inhibitory concentration (IC50) worked out at 5.16 µM on Aβ1–42, 0.0645 µM at AChE and 0.0474 µM on BuChE.

Source of the values: PMC9518246, “Design and synthesis of new indole drug candidates to treat Alzheimer’s disease and targeting neuro-inflammation using a multi-target-directed ligand (MTDL) strategy” (Journal of Enzyme Inhibition and Medicinal Chemistry, 2022).
